Assay results reported in the NIST ThermoML archive (doi:10.1021/je2007549).

Assay: xn = mol fraction of the nth substance listed
Details: 101 kPa, Liquid; for electrical conductivity: Direct current cell with electrodes; for viscosity: Falling or rolling sphere viscometry; for mass density: Vibrating tube method

CCCC[P+](CCCC)(CCCC)CCCN.C[C@H](N)C(=O)[O-] [(3-aminopropyl)tributylphosphonium L-alaninate] + O
Details | electrical conductivity [S/m] | mass density [kg/m3] | viscosity [mPa·s]
298.15 K, x2 = 0 | 0.0141 | 986.75 | 804.88
298.15 K, x2 = 0.25 | 0.0244 | 988.47 | 597.85
298.15 K, x2 = 0.5 | 0.0337 | 991.4 | 429.73
298.15 K, x2 = 0.75 | 0.0647 | 999.98 | 208.66
303.15 K, x2 = 0 | 0.0209 | 983.72 | 561.4
303.15 K, x2 = 0.25 | 0.032 | 985.39 | 417.93
303.15 K, x2 = 0.5 | 0.0439 | 988.27 | 304.2
303.15 K, x2 = 0.75 | 0.0859 | 996.76 | 150.37
313.15 K, x2 = 0 | 0.032 | 977.65 | 291.07
313.15 K, x2 = 0.25 | 0.0487 | 979.18 | 222.26
313.15 K, x2 = 0.5 | 0.0703 | 982.01 | 163.31
313.15 K, x2 = 0.75 | 0.134 | 990.22 | 83.45
323.15 K, x2 = 0 | 0.0464 | 971.62 | 164.61
323.15 K, x2 = 0.25 | 0.0727 | 973.04 | 127.07
323.15 K, x2 = 0.5 | 0.105 | 975.81 | 95.01
323.15 K, x2 = 0.75 | 0.195 | 983.57 | 50.38
333.15 K, x2 = 0 | 0.0649 | 965.71 | 106.7
333.15 K, x2 = 0.25 | 0.101 | 966.97 | 78.92
333.15 K, x2 = 0.5 | 0.147 | 969.57 | 59.3
333.15 K, x2 = 0.75 | 0.265 | 976.99 | 32.59
343.15 K, x2 = 0 | 0.0884 | 959.97 | 65.96
343.15 K, x2 = 0.25 | 0.142 | 960.89 | 53.07
343.15 K, x2 = 0.5 | 0.193 | 963.3 | 39.29
343.15 K, x2 = 0.75 | 0.334 | 970.15 | 22.27

CC(C)C[C@H](N)C(=O)[O-].CCCC[P+](CCCC)(CCCC)CCCN [(3-aminopropyl)tributylphosphonium L-leucinate] + O
Details | electrical conductivity [S/m] | mass density [kg/m3] | viscosity [mPa·s]
298.15 K, x2 = 0 | 0.008 | 971.86 | 1227.9
298.15 K, x2 = 0.25 | 0.0114 | 973.97 | 920.24
298.15 K, x2 = 0.5 | 0.0173 | 978.04 | 599.52
298.15 K, x2 = 0.75 | 0.0395 | 987.11 | 244.81
303.15 K, x2 = 0 | 0.0108 | 968.8 | 855.26
303.15 K, x2 = 0.25 | 0.0154 | 970.91 | 629.98
303.15 K, x2 = 0.5 | 0.0232 | 974.9 | 407.91
303.15 K, x2 = 0.75 | 0.0515 | 983.89 | 174.05
313.15 K, x2 = 0 | 0.0185 | 962.68 | 417.9
313.15 K, x2 = 0.25 | 0.0254 | 964.75 | 308.75
313.15 K, x2 = 0.5 | 0.0362 | 968.61 | 209.07
313.15 K, x2 = 0.75 | 0.0795 | 977.44 | 94.21
323.15 K, x2 = 0 | 0.0291 | 956.54 | 224.29
323.15 K, x2 = 0.25 | 0.0379 | 958.56 | 169.8
323.15 K, x2 = 0.5 | 0.0515 | 962.52 | 116.62
323.15 K, x2 = 0.75 | 0.116 | 970.88 | 55.71
333.15 K, x2 = 0 | 0.0414 | 950.54 | 130.46
333.15 K, x2 = 0.25 | 0.0542 | 952.54 | 101.73
333.15 K, x2 = 0.5 | 0.0735 | 956.26 | 72.42
333.15 K, x2 = 0.75 | 0.161 | 964.27 | 35.35
343.15 K, x2 = 0 | 0.0605 | 944.58 | 81.01
343.15 K, x2 = 0.25 | 0.0761 | 946.54 | 65.08
343.15 K, x2 = 0.5 | 0.104 | 949.99 | 47.47
343.15 K, x2 = 0.75 | 0.214 | 957.61 | 23.97
